We go through 16 compounds from patent US10047096B2, “Substituted pyridobenzodiazepinone-derivatives and use thereof” (Bayer Pharma Aktiengesellschaft, priority 2014, dated 2018).

What is called IC50 is the concentration needed to halve the response being measured. A lower IC50 goes with inhibition by little substance.

Sequence of human PDGFRβ (P09619 561-1106): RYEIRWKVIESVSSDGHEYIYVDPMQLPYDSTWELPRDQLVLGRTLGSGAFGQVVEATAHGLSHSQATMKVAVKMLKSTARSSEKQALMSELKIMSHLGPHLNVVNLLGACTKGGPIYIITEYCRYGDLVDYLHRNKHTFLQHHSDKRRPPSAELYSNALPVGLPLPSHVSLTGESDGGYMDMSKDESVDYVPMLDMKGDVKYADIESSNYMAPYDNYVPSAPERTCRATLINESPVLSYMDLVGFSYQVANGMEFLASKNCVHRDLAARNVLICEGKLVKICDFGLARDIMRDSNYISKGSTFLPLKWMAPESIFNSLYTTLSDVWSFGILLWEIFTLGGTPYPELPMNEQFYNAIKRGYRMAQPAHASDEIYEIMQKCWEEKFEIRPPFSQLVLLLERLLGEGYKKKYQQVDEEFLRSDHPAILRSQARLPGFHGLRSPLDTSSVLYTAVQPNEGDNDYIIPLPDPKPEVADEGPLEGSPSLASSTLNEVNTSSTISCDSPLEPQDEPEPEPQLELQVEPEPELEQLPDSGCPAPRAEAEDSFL

This assay has as its target human PDGFRβ (Homo sapiens (Human), UniProt P09619). As to the kind of experiment: PDGFRβ kinase assay (PDGFRβ-HTRF). Conditions: 10 μM ATP; some mean values from multiple determinations. It is filed as biochemical. Here is the method: The PDGFRβ-inhibitory activity of the inventive compounds was determined in the PDGFRβ-HTRF assay described hereinafter.
The kinase used was a recombinant fusion protein composed of N-terminal GST and a C-terminal fragment of human PDGFRβ (amino acids R561-L1106), expressed in baculovirus-infected insect cells (Sf9) and purified by affinity chromatography (from ProQinase GmbH, Freiburg, Germany). The substrate used for the kinase reaction was biotinylated poly-Glu,Tyr (4:1) copolymer (from Cisbio Bioassays, Codolet, France).
For the assay, 50 nl of a 100-fold concentrated solution of the test substance in DMSO was pipetted into a black “low-volume 384 well” microtitre plate (from Greiner Bio-One, Frickenhausen, Germany), then 2 μl of a solution of PDGFRβ in assay buffer [50 mM HEPES/NaOH pH 7.5, 10 mM MgCl2, 2.5 mM dithiothreitol, 0.01% (v/v) Triton-X100 (from Sigma)] was added and the mixture was incubated for 15 min, in order to enable preliminary binding of the substance to the enzyme before the kinase reaction. […] The resulting mixture was incubated at 22° C. for 1 h to allow formation of a complex of the biotinylated phosphorylated substrate and the detection reagents.
Subsequently, the amount of the phosphorylated substrate was evaluated by measuring the resonance energy transfer from the PT66-Eu chelate to the streptavidin-XL665. […] The IC50 values were calculated by a 4-parameter fit.
On to `Cc1ccc(O)cc1Nc1ccnc2c1C(=O)Nc1cc(CNC3CCN(C)CC3)ccc1N2` [Example 138], for which half-maximal inhibition (IC50) required 2.41 nM. This lies in the single-digit nanomolar range.
Then `Cc1ccc(O)cc1Nc1ccnc2c1C(=O)Nc1cc(CNc3ccccc3)ccc1N2` [Example 26, 8-Anilinomethyl-4-[(5-hydroxy-2-methylphenyl)amino]-6,11-dihydro-5H-pyrido[2,3-b][1,5]benzodiazepin-5-one], with 60.3 nM.
The figure for `N#Cc1ccc2c(c1)NC(=O)c1c(Nc3ccc(O)c(O)c3)ccnc1N2` [Example 12, 4-[(3,4-Dihydroxyphenyl)amino]-5-oxo-6,11-dihydro-5H-pyrido[2,3-b][1,5]benzodiazepine-8-carbonitrile] is 84.4 nM.
The figure for `Cc1cc(F)c(Nc2ccnc3c2C(=O)Nc2cc(C(=O)N4CCOCC4)ccc2N3)cc1O` [Example 85, 4-[(2-Fluoro-5-hydroxy-4-methylphenyl)amino]-8-(morpholin-4-ylcarbonyl)-6,11-dihydro-5H-pyrido[2,3-b][1,5]benzodiazepin-5-one] is 13.9 nM; for `Cc1ccc(O)cc1Nc1ccnc2c1C(=O)Nc1cc(CNc3ccn(C)n3)ccc1N2` [Example 105] it is 14.6 nM.
Consider `CC[C@@H](C)[C@@H](CO)NCc1ccc2c(c1)NC(=O)c1c(Nc3cc(O)c(C)cc3F)ccnc1N2` [Example 172, 4-[(2-Fluoro-5-hydroxy-4-methylphenyl)amino]-8-({[(2S,3R)-1-hydroxy-3-methylpentan-2-yl]amino}methyl)-6,11-dihydro-5H-pyrido[2,3-b][1,5]benzodiazepin-5-one], for which the IC50 stood at 4.11 nM.
Then `CCN(CCCO)Cc1ccc2c(c1)NC(=O)c1c(Nc3cc(O)c(C)cc3F)ccnc1N2` [Example 222, 8-{[Ethyl(3-hydroxypropyl)amino]methyl}-4-[(2-fluoro-5-hydroxy-4-methylphenyl)amino]-6,11-dihydro-5H-pyrido[2,3-b][1,5]benzodiazepin-5-one], with 1.01 nM; and `Cc1ccc(O)cc1Nc1ccnc2c1C(=O)Nc1cc(CNCC(C)C)ccc1N2` [Example 152], with 4.42 nM; and `CCN(Cc1ccc2c(c1)NC(=O)c1c(Nc3cc(O)c(C)cc3F)ccnc1N2)CC(C)O` (single isomer, unassigned; ent-8) [Example 206, ent-8-{[Ethyl(2-hydroxypropyl)amino]methyl}-4-[(2-fluoro-5-hydroxy-4-methylphenyl)amino]-6,11-dihydro-5H-pyrido[2,3-b][1,5]benzodiazepin-5-one (Enantiomer 2)], with 1.55 nM.
The figure for `Cc1ccc(O)cc1Nc1ccnc2c1C(=O)Nc1cc(CNCCCOC(C)C)ccc1N2` [Example 149] is 1.74 nM; for `Cc1cc(F)c(Nc2ccnc3c2C(=O)Nc2cc(CN4CC[C@H](N(C)C)C4)ccc2N3)cc1O` [Example 220, 8-{[(3S)-3-(Dimethylamino)pyrrolidin-1-yl]methyl}-4-[(2-fluoro-5-hydroxy-4-methylphenyl)amino]-6,11-dihydro-5H-pyrido[2,3-b][1,5]benzodiazepin-5-one] it is 2.15 nM; for `Cc1ccc(O)cc1Nc1ccnc2c1C(=O)Nc1cc(CNc3ccc4[nH]cnc4c3)ccc1N2` [Example 104] it is 12.2 nM.
The figure for `N#Cc1ccc2c(c1)NC(=O)c1c(Nc3ccc(NS(=O)(=O)c4ccccc4)c(O)c3)ccnc1N2` [Example 6, N-{4-[(8-Cyano-5-oxo-6,11-dihydro-5H-pyrido[2,3-b][1,5]benzodiazepin-4-yl)amino]-2-hydroxyphenyl}benzenesulphonamide] is 689 nM; for `Cc1ccc(O)cc1Nc1ccnc2c1C(=O)Nc1cc(CNCC(C)Cn3cccn3)ccc1N2` (stereo not shown) [Example 114] it is 1.83 nM; for `CCOCCC(C)NCc1ccc2c(c1)NC(=O)c1c(Nc3cc(O)ccc3C)ccnc1N2` (stereo not shown) [Example 118] it is 4.02 nM.
In turn, `Cc1cc(F)c(Nc2ccnc3c2C(=O)Nc2cc(CN4CCCC(O)CC4)ccc2N3)cc1O` (racemic) [Example 62, rac-4-[(2-Fluoro-5-hydroxy-4-methylphenyl)amino]-8-[(4-hydroxyazepan-1-yl)methyl]-6,11-dihydro-5H-pyrido[2,3-b][1,5]benzodiazepin-5-one] gave an IC50 of 1.39 nM.
